Assay results published in article PMC6652260 (Endocrine Connections, 2019).
pIC50: −log10 of the molar value.

Columns and labels:
[1] = system: cultured trophoblast cells; conditions: cited from earlier work
human placental HSD11B2 = molecular target: T1, human placental HSD11B2 (Homo sapiens, UniProt P80365); experiment: Human placental microsomal HSD11B2 activity assay; format: biochemical
T1 sequence (P80365 1-405): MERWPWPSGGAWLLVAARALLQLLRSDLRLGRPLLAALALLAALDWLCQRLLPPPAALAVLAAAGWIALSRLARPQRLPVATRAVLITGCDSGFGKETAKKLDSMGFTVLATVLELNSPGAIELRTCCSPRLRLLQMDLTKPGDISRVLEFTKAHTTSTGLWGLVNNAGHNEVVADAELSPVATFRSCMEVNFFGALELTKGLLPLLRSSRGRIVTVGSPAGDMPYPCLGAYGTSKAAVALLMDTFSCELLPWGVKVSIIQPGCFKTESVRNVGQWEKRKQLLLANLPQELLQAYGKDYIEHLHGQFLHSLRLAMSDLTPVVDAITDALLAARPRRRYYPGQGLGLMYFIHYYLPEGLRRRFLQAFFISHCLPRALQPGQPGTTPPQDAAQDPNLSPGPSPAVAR

[2] = system: human trophoblast cell lines BeWo and HTR-8; conditions: DES at pM, BeWo and HTR-8 cells; cited from earlier work

Structure (SMILES) | Effect on secretion of human chorionic gonadotropin [1] | pIC50 (human placental HSD11B2) | Mode of action versus cofactor NAD+ (Lineweaver–Burk), human HSD11B2 (human placental HSD11B2; cofactor NAD+ varied, human placental microsomes) | Mode of action versus steroid substrate (Lineweaver–Burk), human HSD11B2 (human placental HSD11B2; cortisol as the substrate, human placental microsomes) | inhibition at 100 µM (human placental HSD11B2; read-out: Inhibition of human placental HSD11B2 activity) [%] | Effect on human β-chorionic gonadotropin (β-hCG) secretion [2]
CC1(C)[C@@H](OC(=O)CCC(=O)O)CC[C@]2(C)[C@H]3C(=O)C=C4[C@@H]5C[C@@](C)(C(=O)O)CC[C@]5(C)CC[C@@]4(C)[C@]3(C)CC[C@@H]12 [carbenoxolone] | stimulated secretion | – | – | – | – | –
CC/C(=C(/CC)c1ccc(O)cc1)c1ccc(O)cc1 [DES, Diethylstilbestrol] | – | 4.90 | uncompetitive inhibitor | competitive inhibitor | > 50 | can inhibit
